{
  "source": "patent US11707474B2",
  "about": "“Methods for treating acute myeloid leukemia and related conditions” (GlycoMimetics, Inc., priority 2018, dated 2023)",
  "key": {"sE-selectin": {"system": "sE-selectin", "experiment": "Plasma soluble E-selectin ELISA during treatment", "format": "in vivo, human", "settings": "individual subjects; for sE-selectin AUEC Day 3 / sE-selectin AUEC Day 8 / sE-selectin AUEC Percent Change from Day 1, Day 3 / sE-selectin AUEC Percent Change from Day 1, Day 8: with MEC", "description": "Plasma sE-selectin was quantified using a commercially available sandwich format ELISA assay, in which a monoclonal antibody specific for sE-selectin has been pre-coated onto a microplate (Human sE-Selectin Platinum ELISA kit, eBioscience, cat. no. BMS205). Standards, samples and controls were pipetted into the wells of the microplate where they bind to the antibodies coated on the microplate. After a wash step, an HRP-conjugated anti-human sE-selectin antibody was added to the wells to bind the sE-selectin captured by the first antibody. After washing the plate wells to remove unbound HRP-conjugated anti-human sE-selectin antibody, a substrate solution reactive with HRP is added to the wells. Colored product formed in proportion to the amount of human sE-selectin present in the sample or standard. The color-producing reaction was stopped by addition of acid and absorbance of each well was measured at 450 nm. Six human serum samples from healthy donors served as the quality control samples. In addition, two control lyophilized plasma samples (high and low) included with the assay kit were also added to each run.\nThis response was seen both in mean levels and Area-Under-Effect-Curve (“AUEC”). Decrease from baseline to Day 8 (at the end of 6 days of treatment with a compound of Formula (I), given concurrently with MEC chemotherapy) was highly significant (P<0.0001) with no dose response. FIG. 11 illustrates decreasing mean levels of plasma soluble E-selectin over the treatment period in all dose groups, where doses were BID (i.e., the 5, 10, and 20 mg/kg “Per Dose” amounts of a compound of Formula (I) correspond to dosages of 10, 20, and 40 mg/kg per day, respectively)."}, "U937": {"system": "U937", "experiment": "Systemic U-937 AML mouse survival model", "format": "in vivo, NOD/SCID mouse", "description": "A compound of Formula (I) in combination with cytarabine/DNR chemotherapy was evaluated in the systemic U-937 AML NOD/SCID mouse survival model.\nThe U937 cell line was chosen because the cells express the E-selectin ligand and react with antibody HECA-452. After engraftment, mice were randomized into 4 groups (n=10/group) and treatment was initiated. The groups included a saline control group; a group administered the compound of Formula (I) at 40 mg/kg BID (i.e., 80 mg/kg per day) for 9 days, a group administered cytarabine at 300 mg/kg QD (i.e., 300 mg/kg per day) for 3 days and a single dose of DNR at 3 mg/kg; and a group administered the combined regimen of the compound of Formula (I) and chemotherapy (cytarabine and DNR)."}, "MLL-AF9 leukemic cells": {"system": "MLL-AF9 leukemic cells", "experiment": "Surviving LSC after high dose cytarabine, limiting dilution transplantation", "format": "in vivo, mice", "settings": "with high dose cytarabine (2 x 900 mg/kg)", "description": "Wild-type mice were transplanted with MLL-AF9 leukemic cells and following engraftment, treated with high dose cytarabine (2 doses of 900 mg/kg at a 12-hour interval (1800 mg/kg total)) alone or in combination with a compound of Formula (I). Bone-marrow cells were harvested 24 hours after treatment and the surviving functional LSCs were quantified by limiting dilution transplantation assays in irradiated wild-type syngeneic recipients. The proportion of recipients who developed leukemia was used to calculate the number of surviving LSC by Poisson's distribution."}, "E-selectin [1]": {"target": "T1, E-selectin (Mus musculus, UniProt Q00690)", "T1 construct": "fused on or other part: Ig (immunoglobulin Fc) part fused on as a handle for immobilisation", "T1 sequence (Q00690 22-175 limits assumed)": "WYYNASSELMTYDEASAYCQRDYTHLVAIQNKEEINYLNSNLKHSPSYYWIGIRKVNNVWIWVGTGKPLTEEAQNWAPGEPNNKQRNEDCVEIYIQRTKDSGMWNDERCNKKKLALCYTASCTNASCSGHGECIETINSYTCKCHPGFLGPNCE", "experiment": "E-selectin competitive binding assay (sLe^a polyacrylamide conjugate)", "description": "(§1) The inhibition assay to screen for and characterize glycomimetic antagonists of E-selectin is a competitive binding assay, which allows the determination of IC50 and IC90 values. An E-selectin/Ig chimera was immobilized in 96 well microtiter plates by incubation at 37° C. for 2 hours. To reduce nonspecific binding, bovine serum albumin was added to each well and incubated at room temperature for 2 hours. The plate was washed and serial dilutions of the test compounds were added to the wells in the presence of conjugates of biotinylated, sLe^a polyacrylamide with streptavidin/horseradish peroxidase and incubated for 2 hours at room temperature.\n(§2) To determine the amount of sLe^a bound to immobilized E-selectin after washing, the peroxidase substrate, 3, 3′, 5, 5′ tetramethylbenzidine (TMB) was added. After 3 minutes, the enzyme reaction was stopped by the addition of H3PO4, and the absorbance of light at a wavelength of 450 nm was determined. The concentration of a compound of Formula (I), required to inhibit binding by 50% was determined and reported as the IC50. The concentration required to inhibit binding by 90% was determined and reported as the IC90."}, "E-selectin [2]": {"target": "T2, E-selectin (Homo sapiens, UniProt P16581)", "T2 construct": "fused on or other part: Ig (immunoglobulin Fc) part fused on as a handle for immobilisation", "T2 sequence (P16581 22-175 limits assumed)": "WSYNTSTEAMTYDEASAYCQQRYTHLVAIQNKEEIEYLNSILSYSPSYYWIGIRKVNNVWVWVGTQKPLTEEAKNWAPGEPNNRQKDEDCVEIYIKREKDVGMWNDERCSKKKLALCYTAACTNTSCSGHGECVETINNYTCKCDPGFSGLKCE", "experiment": "E-selectin competitive binding assay (sLe^a polyacrylamide conjugate)", "description": "as §1, §2"}, "[3]": {"system": "MLL-AF9-induced AML leukemia", "experiment": "Syngeneic MLL-AF9 induced AML leukemia survival model", "format": "in vivo, mice", "settings": "40 mg/kg BID 10 days with cytarabine/DOX", "description": "The impact of a compound of Formula (I) when administered adjunctively with cytarabine/DOX chemotherapy was evaluated in the syngeneic MLL-AF9 induced AML leukemia model.\nBone marrow from mice bearing MLL-AF9-inducted leukemia was harvested and enriched for kit+ cells and frozen in aliquots for subsequent transplant. Recipient mice were then injected with 3×10^4 leukemic cells 2 days after conditioning (Study day 0). Six days after leukemic injection, mice were randomized into 3 groups (n=8/group): a group administered a compound of Formula (I) at 40 mg/kg BID (i.e. 80 mg/kg per day) for 10 days, a group administered cytarabine/DOX (cytarabine at 100 mg/kg QD for 5 days, DOX at 1 mg/kg QD for 2 days), and a group administered a combined regimen of cytarabine/DOX/compound of Formula (I)."}},
  "note": "“And” between values parts separate entries of the source, which are not always exact repeats. Equal entries are not always repeated. Where two headings read alike, the source gives them in different places.",
  "data": [
    {"smiles": "CC[C@@H]1CC(C(=O)NCCNC(=O)CCOCCOCCOCCOCCOCCOCCOCCOCCOCCOCCOCCOC)C[C@@H](O[C@@H]2O[C@@H](CO)[C@H](O)C(O[C@@H](CC3CCCCC3)C(=O)O)C2NC(C)=O)C1OC1O[C@@H](C)C(O)[C@H](O)[C@@H]1O", "note": "(some centres unmarked) [compound of Formula (I)]", "values": [
      {"measurement": "sE-selectin AUEC Day 1", "setting": "sE-selectin; 5 mg/kg per dose", "result": "563.47 hrxng/mL and 1,605.18 hrxng/mL and 339.27 hrxng/mL and 328.40 hrxng/mL"},
      {"measurement": "sE-selectin AUEC Day 3", "setting": "sE-selectin; 5 mg/kg per dose", "result": "494.30 hrxng/mL and 1,445.26 hrxng/mL and 275.71 hrxng/mL and 332.11 hrxng/mL"},
      {"measurement": "sE-selectin AUEC Day 8", "setting": "sE-selectin; 5 mg/kg per dose", "result": "440.68 hrxng/mL and 728.47 hrxng/mL and 156.25 hrxng/mL and 161.11 hrxng/mL"},
      {"measurement": "sE-selectin AUEC Percent Change from Day 1, Day 3", "setting": "sE-selectin; 5 mg/kg per dose", "result": "−12.28% and −9.96% and −18.74% and 1.13%"},
      {"measurement": "sE-selectin AUEC Percent Change from Day 1, Day 8", "setting": "sE-selectin; 5 mg/kg per dose", "result": "−21.79% and −54.62% and −53.95% and −50.94%"},
      {"measurement": "sE-selectin AUEC Day 1", "setting": "sE-selectin; 10 mg/kg per dose", "result": "338.36 hrxng/mL and 707.63 hrxng/mL and 325.19 hrxng/mL and 269.90 hrxng/mL and 230.35 hrxng/mL"},
      {"measurement": "sE-selectin AUEC Day 3", "setting": "sE-selectin; 10 mg/kg per dose", "result": "313.04 hrxng/mL and 981.09 hrxng/mL and 298.31 hrxng/mL and 202.99 hrxng/mL and 185.98 hrxng/mL"},
      {"measurement": "sE-selectin AUEC Day 8", "setting": "sE-selectin; 10 mg/kg per dose", "result": "168.71 hrxng/mL and 218.03 hrxng/mL and 25.51 hrxng/mL and 103.74 hrxng/mL and 158.91 hrxng/mL"},
      {"measurement": "sE-selectin AUEC Percent Change from Day 1, Day 3", "setting": "sE-selectin; 10 mg/kg per dose", "result": "−7.48% and 38.64% and −8.26% and −24.79% and −19.26%"},
      {"measurement": "sE-selectin AUEC Percent Change from Day 1, Day 8", "setting": "sE-selectin; 10 mg/kg per dose", "result": "−50.14% and −69.19% and −92.15% and −61.57% and −31.01%"},
      {"measurement": "sE-selectin AUEC Day 1", "setting": "sE-selectin; 20 mg/kg per dose", "result": "2,206.19 hrxng/mL and 750.41 hrxng/mL and 202.19 hrxng/mL"},
      {"measurement": "sE-selectin AUEC Day 3", "setting": "sE-selectin; 20 mg/kg per dose", "result": "1,743.61 hrxng/mL and 632.82 hrxng/mL and 163.18 hrxng/mL"},
      {"measurement": "sE-selectin AUEC Day 8", "setting": "sE-selectin; 20 mg/kg per dose", "result": "956.57 hrxng/mL and 294.47 hrxng/mL and 31.49 hrxng/mL"},
      {"measurement": "sE-selectin AUEC Percent Change from Day 1, Day 3", "setting": "sE-selectin; 20 mg/kg per dose", "result": "−20.97% and −15.67% and −19.30%"},
      {"measurement": "sE-selectin AUEC Percent Change from Day 1, Day 8", "setting": "sE-selectin; 20 mg/kg per dose", "result": "−56.64% and −60.76% and −84.43%"},
      {"measurement": "survival", "setting": "U937; 40 mg/kg BID 9 days alone", "result": "does not extend survival beyond saline control"},
      {"measurement": "median survival time (MST)", "setting": "U937; 40 mg/kg BID 9 days combined with cytarabine/DNR", "result": "greater than 120 days"},
      {"measurement": "animals surviving to the end of the study", "setting": "U937; 40 mg/kg BID 9 days combined with cytarabine/DNR, n=10/group", "result": "five"},
      {"measurement": "increase of sensitivity of LSC to cytarabine treatment", "setting": "MLL-AF9 leukemic cells", "result": "approximately 20 fold"},
      {"measurement": "IC50", "setting": "E-selectin [1]", "result": "2450 nM and 2490 nM"},
      {"measurement": "IC90", "setting": "E-selectin [1]", "result": "3.7 µM and 4.91 µg/mL"},
      {"measurement": "IC50", "setting": "E-selectin [2]", "result": "2440 nM and 2400 nM"},
      {"measurement": "IC90", "setting": "E-selectin [2]", "result": 7535, "unit": "ng/mL"},
      {"measurement": "IC90", "setting": "E-selectin [2]; read-out: IC90", "result": "7.54 µg/mL and 5.68 µM"},
      {"measurement": "MST", "setting": "[3]", "result": 41, "unit": "days"},
      {"measurement": "increased lifespan", "setting": "[3]", "result": 64, "unit": "%"}
    ]}
  ]
}
